# According to patent US12115208B2, “Small-molecule adjuvants for antibiotics to address antibiotic resistance” (HIGH POINT UNIVERSITY, priority 2017, dated 2024):
# Read-outs that look alike come from different tables or passages of the source.
# Assays:
# [1] = tested on: S. aureus NR-49120 (VRSA); test: Antibiotic repotentiation (antibiotic MIC with/without compound); format: cell-based, Staphylococcus aureus; conditions: VRSA NR-49120; for Fold Reduction: antibiotic MIC
# Procedure: (§1) The overnight culture was diluted into fresh CAMHB to a concentration of 5×10^5 CFU/ml. […] On the same plate, a standard microdilution MIC with the tested antibiotics and no added compound was also performed to compare the antibiotic MIC in the presence and absence of compound. […] Fold reductions were calculated by dividing the MIC of the antibiotic without compound by the MIC of the antibiotic in the presence of compound.
# [2] = tested on: S. aureus USA100 (MRSA); test: as above; format: cell-based, Staphylococcus aureus; conditions: MRSA USA100; for Fold Reduction: antibiotic MIC
# Procedure: as §1
# [3] = tested on: S. aureus USA300 (MRSA); test: as above; format: cell-based, Staphylococcus aureus; conditions: MRSA USA300
# Procedure: as §1
# (§2) The compounds were then analyzed for antibiotic repotentiation activity. […] The tested strains included USA300, which is a common and particularly virulent strain of community-acquired MRSA.
# [4] = tested on: S. aureus 43300 (MRSA); test: as above; format: cell-based, Staphylococcus aureus
# Procedure: as §1, §2
# [5] = tested on: S. aureus ATCC 43300 (MRSA); test: Minimum inhibitory concentration, broth microdilution; format: cell-based, Staphylococcus aureus; conditions: compound alone; S. aureus ATCC 43300 (MRSA); CAMHB, 18 h; read-out: MIC
# Procedure: as §2
# [6] = tested on: S. epidermidis ATCC 49461 biofilm; test: Biofilm inhibition, crystal violet assay; format: cell-based, Staphylococcus epidermidis; conditions: read-out: Inhibition of biofilm formation IC50
# Procedure: A standard static crystal violet assay was used to quantify biofilm inhibition.^45 Cultures of S. aureus or S. epidermidis were grown overnight in TSBG (tryptic soy broth with 5% glucose) at 37° C. with shaking. These cultures were used to inoculate fresh TSBG to a calculated optical density of 0.01 at 600 nm (OD600). […] Untreated aliquots were used as a positive control and water served as a negative control. 100 μl of these suspensions were added to the wells of a 96-well polyvinylchloride microtiter plate. […] After incubation, media was discarded and the plates were washed with water to remove non-adherent cells. Adherent biofilms were stained with 110 μl of crystal violet (0.1% in water) and incubated at room temperature for thirty minutes. The crystal violet staining solution was discarded and plates were washed with water to remove excess stain. The resulting stained biofilms were solubilized with 200 μL of 95% ethanol for 10 minutes. 125 μl of the ethanol solutions were transferred to a clear polystyrene microtiter plate for evaluation. Absorbance at 540 nm was recorded using a BioTek Synergy H1 microplate reader. The absorbance of the negative control lanes was subtracted from the experimental values to account for background staining. Percent inhibition was calculated by comparison of the absorbance values of control versus treated wells under identical conditions.
# [7] = +50 μM compound, S. aureus 43300 (MRSA)
# [8] = oxacillin MIC, +50 μM compound, S. aureus 43300 (MRSA)
# [9] = +100 μM compound, S. aureus 43300 (MRSA)
# [10] = oxacillin MIC, +100 μM compound, S. aureus 43300 (MRSA)
# [11] = +75 μM compound, S. aureus 43300 (MRSA)
# [12] = oxacillin MIC, +75 μM compound, S. aureus 43300 (MRSA)
# [13] = +31.25 μM compound, S. aureus 43300 (MRSA)
# [14] = oxacillin MIC, +31.25 μM compound, S. aureus 43300 (MRSA)
# [15] = Staphylococcus epidermidis, ATCC49461, 30 h
structure (smiles),measurement,setting,value
CC1(C)S[C@@H]2[C@H](NC(=O)[C@H](N)c3ccccc3)C(=O)N2[C@H]1C(=O)O [Ampicillin],MIC of antibiotic,[1]; +Loratadine 25 μM,16 µg/mL
same,MIC of antibiotic,[1]; +Loratadine 50 μM,4 µg/mL
same,Fold Reduction,[1]; +Loratadine 25 μM,1
same,Fold Reduction,[1]; +Loratadine 50 μM,4
same,MIC of antibiotic,[1]; antibiotic alone,16 µg/mL
same,MIC of antibiotic,[2]; +Loratadine 25 μM,16 µg/mL
same,MIC of antibiotic,[2]; +Loratadine 50 μM,1/2
same,Fold Reduction,[2]; +Loratadine 25 μM,2
same,Fold Reduction,[2]; +Loratadine 50 μM,32/16
same,MIC of antibiotic,[2]; antibiotic alone,32 µg/mL
same,MIC of antibiotic,[3]; +Loratadine 25 μM,8 µg/mL
same,MIC of antibiotic,[3]; +Loratadine 50 μM,0.5 µg/mL
same,MIC of antibiotic,[3]; antibiotic alone,8 µg/mL
same,MIC of antibiotic,"[4]; +Amoxapine (150 μM), S. aureus 43300 (MRSA)",4 µg/mL
same,MIC of antibiotic,"[4]; +Loratadine 25 μM, MRSA 43300",16/8
same,MIC of antibiotic,"[4]; +Loratadine 50 μM, MRSA 43300",1/2
same,Fold Reduction,"[4]; antibiotic MIC, +Amoxapine (150 μM), S. aureus 43300 (MRSA)",8
same,Fold Reduction,"[4]; antibiotic MIC, +Loratadine 25 μM, MRSA 43300",1/2
same,Fold Reduction,"[4]; antibiotic MIC, +Loratadine 50 μM, MRSA 43300",4
same,MIC of antibiotic,"[4]; antibiotic alone, no compound, S. aureus 43300 (MRSA)",32 µg/mL
same,MIC of antibiotic,"[4]; antibiotic alone, S. aureus ATCC 43300 (MRSA)",16 µg/mL
Cc1ccnc2c1NC(=O)c1cccnc1N2C1CC1 [Compound I-1],Oxacillin MIC,[4]; [7],16 µg/mL
same,Fold Reduction,[4]; [8],1
NC(=O)N1c2ccccc2C=Cc2ccccc21 [Compound I-2],Oxacillin MIC,[4]; [7],16 µg/mL
same,Fold Reduction,[4]; [8],1
O=c1c2ccccc2ccc2ccccc12 [Compound I-3],Oxacillin MIC,[4]; [7],16 µg/mL
same,Fold Reduction,[4]; [8],1
C1=Cc2ccccc2Nc2ccccc21 [Compound I-4],Oxacillin MIC,[4]; [7],16 µg/mL
same,Fold Reduction,[4]; [8],1
O=C1CCCNc2cc(Cl)ccc21 [Compound I-6],Oxacillin MIC,[4]; [7],16 µg/mL
same,Fold Reduction,[4]; [8],1
c1ccc(-c2ccccn2)nc1 [Compound V-1],MIC,[5],>2000 µM
same,IC50,[6]; 30 h,> 100 µM
same,Oxacillin MIC,[4]; [9],32 µg/mL
same,Fold Reduction,[4]; [10],1
c1cnc2ccc3ncccc3c2c1 [Compound V-2],MIC,[5],1000 µM
same,IC50,[6]; 30 h,84.6 µM
same,Oxacillin MIC,[4]; [9],32 µg/mL
same,Fold Reduction,[4]; [10],1
Brc1cc2ccccc2c2ccccc12 [Compound V-3],MIC,[5],>250 µM
same,IC50,[6]; 30 h,> 100 µM
same,Oxacillin MIC,[4]; [11],8 µg/mL
same,Fold Reduction,[4]; [12],4
c1cnc2c(c1)ccc1cccnc12 [Compound V-4],MIC,[5],125 µM
same,IC50,[6]; 30 h,51.8 µM
same,Oxacillin MIC,[4]; [13],8 µg/mL
same,Fold Reduction,[4]; [14],4
Clc1ccc2ccc3cccnc3c2n1 [Compound V-5],MIC,[5],1000 µM
same,IC50,[6]; 30 h,38.5 µM
same,Oxacillin MIC,[4]; [9],32 µg/mL
same,Fold Reduction,[4]; [10],1
O=[N+]([O-])c1cc2cccnc2c2ncccc12 [Compound V-7],MIC,[5],31.25 µM
same,IC50,[6]; 30 h,> 100 µM
same,Oxacillin MIC,"[4]; +7.8125 μM compound, S. aureus 43300 (MRSA)",16 µg/mL
same,Fold Reduction,"[4]; oxacillin MIC, +7.8125 μM compound, S. aureus 43300 (MRSA)",2
Cc1cc2cccnc2c2ncccc12 [Compound V-8],MIC,[5],125 µM
same,IC50,[6]; 30 h,78.9 µM
same,Oxacillin MIC,[4]; [13],2 µg/mL
same,Fold Reduction,[4]; [14],16
Cc1ccc2ccc3ccc(C)nc3c2n1 [Compound V-9],MIC,[5],125 µM
same,IC50,[6]; 30 h,< 5 µM
same,Oxacillin MIC,[4]; [13],32 µg/mL
same,Fold Reduction,[4]; [14],1
Clc1ccnc2c1ccc1c(Cl)ccnc12 [Compound V-10],MIC,[5],>500 µM
same,IC50,[6]; 30 h,27.3 µM
same,Oxacillin MIC,[4]; [11],32 µg/mL
same,Fold Reduction,[4]; [12],1
Oc1ccnc2c1ccc1c(O)ccnc12 [Compound V-11],MIC,[5],250 µM
same,IC50,[6]; 30 h,> 100 µM
same,Oxacillin MIC,"[4]; +62.5 μM compound, S. aureus 43300 (MRSA)",32 µg/mL
same,Fold Reduction,"[4]; oxacillin MIC, +62.5 μM compound, S. aureus 43300 (MRSA)",1
COc1ccnc2c1ccc1c(OC)ccnc12 [Compound V-12],MIC,[5],31.25 µM
same,IC50,[6]; 30 h,> 100 µM
same,Oxacillin MIC,"[4]; +7.8 μM compound, S. aureus 43300 (MRSA)",4 µg/mL
same,Fold Reduction,"[4]; oxacillin MIC, +7.8 μM compound, S. aureus 43300 (MRSA)",8
c1ccc(-c2ccnc3c2ccc2c(-c4ccccc4)ccnc23)cc1 [Compound V-13],MIC,[5],6.25 µM
same,IC50,[6]; 30 h,> 100 µM
same,Oxacillin MIC,"[4]; +[…] compound, S. aureus 43300 (MRSA)",16 µg/mL
Cc1cnc2c(ccc3c(C)c(C)cnc32)c1C [Compound V-14],MIC,[5],3.125 µM
same,IC50,[6]; 30 h,> 100 µM
same,Oxacillin MIC,"[4]; +0.78 μM compound, S. aureus 43300 (MRSA)",32 µg/mL
same,Fold Reduction,"[4]; oxacillin MIC, +0.78 μM compound, S. aureus 43300 (MRSA)",1
CCN1c2ccccc2CCc2ccc(Cl)cc21 [II-2],Oxacillin MIC,[4]; [7],32 µg/mL
same,Fold Reduction,[4]; [8],1
CCCCCN1c2ccccc2CCc2ccc(Cl)cc21 [II-3],Oxacillin MIC,[4]; [7],16 µg/mL
same,Fold Reduction,[4]; [8],2
CCCCCCCCN1c2ccccc2CCc2ccc(Cl)cc21 [II-4],Oxacillin MIC,[4]; [7],32 µg/mL
same,Fold Reduction,[4]; [8],1
C=CCN1c2ccccc2CCc2ccc(Cl)cc21 [II-5],Oxacillin MIC,[4]; [7],8 µg/mL
same,Fold Reduction,[4]; [8],4
Clc1ccc2c(c1)N(Cc1ccccc1)c1ccccc1CC2 [II-6],Oxacillin MIC,[4]; [7],32 µg/mL
same,Fold Reduction,[4]; [8],1
NC1=Nc2ccccc2Oc2ccc(Cl)cc21 [II-7],Oxacillin MIC,[4]; [7],32 µg/mL
same,Fold Reduction,[4]; [8],1
CCCCCNC1=Nc2ccccc2Oc2ccc(Cl)cc21 [II-8],Oxacillin MIC,[4]; [7],32 µg/mL
same,Fold Reduction,[4]; [8],1
CCCCCCCCNC1=Nc2ccccc2Oc2ccc(Cl)cc21 [II-9],Oxacillin MIC,[4]; [7],32 µg/mL
same,Fold Reduction,[4]; [8],1
Clc1ccc2c(c1)C(NC1CCCCC1)=Nc1ccccc1O2 [II-10],Oxacillin MIC,[4]; [7],32 µg/mL
same,Fold Reduction,[4]; [8],1
"CCCCN1CCC(=C2c3ccc(Cl)cc3CCc3cccnc32)CC1 [III-1, 11-(1-butylpiperidin-4-ylidene)-8-chloro-6,11-dihydro-5H-benzo[5,6]cyclohepta[1,2-b]pyridine]",IC50,[6]; [15],> 80 µM
same,Fold Reduction,[4]; [8],1
"CCCCCN1CCC(=C2c3ccc(Cl)cc3CCc3cccnc32)CC1 [III-2, 8-chloro-11-(1-pentylpiperidin-4-ylidene)-6,11-dihydro-5H-benzo[5,6]cyclohepta[1,2-b]pyridine]",IC50,[6]; [15],26.9 µM
same,Fold Reduction,[4]; [8],32
"CCCCCCCCCN1CCC(=C2c3ccc(Cl)cc3CCc3cccnc32)CC1 [III-3, 8-chloro-11-(1-nonylpiperidin-4-ylidene)-6,11-dihydro-5H-benzo[5,6]cyclohepta[1,2-b]pyridine]",IC50,[6]; [15],> 80 µM
same,Fold Reduction,[4]; [8],1
Clc1ccc2c(c1)CCc1cccnc1C2=C1CCN(Cc2ccccc2)CC1 [III-4],IC50,[6]; [15],> 50 µM
same,Fold Reduction,[4]; [8],1
"CC(C)c1ccc(CN2CCC(=C3c4ccc(Cl)cc4CCc4cccnc43)CC2)cc1 [III-5, 8-chloro-11-(1-(4-isopropylbenzyl)piperidin-4-ylidene)-6,11-dihydro-5H-benzo[5,6]cyclohepta[1,2-b]pyridine]",IC50,[6]; [15],62.2 µM
same,Fold Reduction,[4]; [8],16
